Assay results from patent US12258338B2, “Modulators of the integrated stress response pathway” (EVOTEC INTERNATIONAL GMBH, priority 2019, dated 2025).
≈ marks a conversion by molar mass, not a printed value. Like-named read-outs stand apart in the source and are kept apart here.

Test: Thermodynamic (Equilibrium) solubility in selected buffer
Format: physicochemical
Conditions: for solubility: aqueous buffer, thermodynamic from solid
How it was run: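 Powdered compound at 1 mg/mL target in 50 mM phosphate pH 2.0, 50 mM acetate pH 5.5 or 50 mM phosphate pH 7.4, stirred overnight at r.t. in the dark, then 0.45 μm filtered. Filtrate quantified by UPLC-UV peak area against a 0.8 mg/mL DMSO reference.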

[1] = acetate buffer 50 mM, pH 5, Table 24, read-out: Solubility (μg/mL) pH 5
[2] = acetate buffer 50 mM, pH 5.5, Table 25, read-out: Solubility (μg/mL) pH 5.5
[3] = phosphate buffer 50 mM, pH 7.4, Table 24, read-out: Solubility (μg/mL) pH 7.4

solubility [1] [µg/mL] | solubility [2] [µg/mL] | Solubility (μg/mL) pH 2 (pH 2, Table 24) | Solubility (μg/mL) pH 2.0 (pH 2.0, Table 25) | solubility [3] [µg/mL] | solubility (phosphate buffer 50 mM, pH 2, Table 24, read-out: Solubility (μg/mL) pH 2) [µg/mL] | Compound
78 (≈ 158 µM) | 78 (≈ 158 µM) | quant.^# | quant.^# | 63 (≈ 128 µM) |  | O=C(COc1ccc(Cl)c(F)c1)N[C@H]1CC[C@H](c2nnc([C@H]3C[C@@H](OC(F)(F)F)C3)o2)NC1 [Example 50, 2-(4-chloro-3-fluorophenoxy)-N-[(3S,6R)-6-{5-[(1s,3s)-3-(trifluoromethoxy)cyclobutyl]-1,3,4-oxadiazol-2-yl}piperidin-3-yl]acetamide]
156 (≈ 345 µM) | 156 (≈ 345 µM) |  |  | 90 (≈ 199 µM) | 907 (≈ 2000 µM) | O=C(COc1ccc(Cl)c(F)c1)N[C@H]1CC[C@H](c2nnc(COC(F)(F)F)o2)NC1 [Example 61, 2-(4-chloro-3-fluorophenoxy)-N-[(3S,6R)-6-(5-[(trifluoromethoxy)methyl]-1,3,4-oxadiazol-2-yl}piperidin-3-yl]acetamide]
